According to patent publication US6235786A, “Reverse hydroxamate inhibitors of matrix metalloproteinases” (Abbott Laboratories, priority 2000, dated 2001):

Target: T1, stromelysin (Homo sapiens, UniProt P08254)
T1 construct: made in house; host or cells: E. coli
Test: Determination of Stromelysin Inhibition (cleavage of thiopeptide ester substrate, DTNB, 405 nm)
Assay type: biochemical
Settings: Table 1; recombinant truncated human stromelysin, pH 6.5, 30 minute assay at ambient temperature
Description: The efficacy of the compounds of this invention as matrix metalloproteinase inhibitors was determined by measuring the inhibition of stromelysin. The inhibition of stromelysin by the compounds of this invention was determined as follows: Recombinant truncated stromelysin (human sequence) produced in E. coli was prepared by expression and purification of the protein as described by Ye et al. (Biochemistry, 1992, 31, 11231-11235, which is incorporated herein by reference). The enzyme was assayed by its cleavage of the thiopeptide ester substrate Ac-Pro-Leu-Gly-(2-mercapto-4-methyl-pentanoyl)-Leu-Gly-OEt as described by Weingarten and Feder (Anal. Biochem., 1985, 147, 437-440 (1985), which is incorporated herein by reference) as a substrate of vertebrate collagenase. The reported conditions were modified to allow assays to be carried out in a microtiter plate. Upon hydrolysis of the thioester bond, the released thiol group reacted rapidly with 5,5'-dithio-bis(2-nitrobenzoic acid) (DTNB) to produce a yellow color which was measured by a microtiter plate reader set at 405 nm. The rates of cleavage of the substrate by stromelysin in the presence or absence of inhibitors were measured in a 30 minute assay at ambient temperature. Solutions of the compounds in DMSO were prepared, and these were diluted at various concentrations into the assay buffer (50 mM MES/NaOH pH 6.5 with 10 mM CaCl2 and 0.2% Pluronic F-68), which was also used for dilution of the enzyme and substrate. The potency of the compounds (IC50) was calculated from the inhibition/inhibitor concentration data.

T1 sequence (P08254 100-272 limits assumed): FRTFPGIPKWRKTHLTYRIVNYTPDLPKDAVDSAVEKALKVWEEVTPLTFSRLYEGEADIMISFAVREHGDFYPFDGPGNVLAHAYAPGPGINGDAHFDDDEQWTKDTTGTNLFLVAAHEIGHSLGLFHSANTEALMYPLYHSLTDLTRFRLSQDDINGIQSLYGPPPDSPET

IC50 | SMILES
4.3 nM | CC(CCS(=O)(=O)c1ccc(Oc2ccccc2)cc1)N(O)C=O (racemic) [Example 120, (±)-N-hydroxy-N-(1-methyl-3-((4-phenoxyphenyl)sulfonyl)propyl)formamide]
130 nM | CC(CCS(=O)(=O)c1ccc(Oc2ccc(OC(F)(F)F)cc2)cc1)N(O)C=O (racemic) [Example 121, (±)-N-hydroxy-N-(1-methyl-3-((4-(4-(trifluoromethoxy)phenoxy)phenyl)-sulfonyl)propyl)formamide]
270 nM | CC1(C)NC(=O)N(C[C@@H](CCS(=O)(=O)c2ccc(Oc3ccccc3)cc2)N(O)C=O)C1=O [Example 123, (R)-N-(1-((4,4-dimethyl-2,5-dioxo-1-imidazolidinyl)methyl)-3-((4-phenoxyphenyl)sulfonyl)propyl)-N-hydroxyformamide]

Target: T2, gelatinase-A (MMP-2) (Homo sapiens, UniProt P08253)
T2 construct: Recombinant active gelatinase-A (MMP-2) is purchased from Oncogene Research; purchased Oncogene Research
T2 sequence (P08253 110-660): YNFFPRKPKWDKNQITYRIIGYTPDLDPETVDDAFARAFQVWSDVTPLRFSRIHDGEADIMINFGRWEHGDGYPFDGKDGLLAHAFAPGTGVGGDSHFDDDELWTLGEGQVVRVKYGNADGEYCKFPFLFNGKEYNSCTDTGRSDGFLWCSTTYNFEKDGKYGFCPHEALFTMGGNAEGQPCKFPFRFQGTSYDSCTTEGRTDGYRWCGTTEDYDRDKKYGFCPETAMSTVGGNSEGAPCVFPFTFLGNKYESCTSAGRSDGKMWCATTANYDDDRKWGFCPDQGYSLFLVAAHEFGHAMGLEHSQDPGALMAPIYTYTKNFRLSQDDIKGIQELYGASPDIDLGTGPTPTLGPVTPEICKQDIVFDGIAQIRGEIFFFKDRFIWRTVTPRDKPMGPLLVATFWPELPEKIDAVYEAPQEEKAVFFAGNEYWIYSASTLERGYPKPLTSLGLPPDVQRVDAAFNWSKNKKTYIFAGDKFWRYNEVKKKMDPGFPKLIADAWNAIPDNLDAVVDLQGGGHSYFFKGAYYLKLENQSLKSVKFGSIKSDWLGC
Test: Inhibition of Gelatinase A (MMP-2), cleavage of a fluorescent substrate
Assay type: biochemical
Settings: Table 2; recombinant active gelatinase-A (MMP-2), pH 7.4, 40 min assay at ambient temperature
Description: The efficacy of the compounds of this invention as matrix metalloproteinase inhibitors was also determined by measuring inhibition as outlined below for Gelatinase A, a member of this family of enzymes. Recombinant active gelatinase-A (MMP-2) is purchased from Oncogene Research. The enzyme is assayed by its cleavage of a fluorescent […] 150 uL volume in a microfluor plate as described in Science 1990, 247, 954-958. Upon cleavage of the substrate, the fluorescence of the EDANS group is increased 30-fold, and this increase is monitored using a f-max (Molecular Devices) fluorescent plate reader (ex: 335 nm; em: 485 nm). The rates of cleavage of the substrate by gelatinase-A in the presence or absence of inhibitors are measured in a 40 min assay at ambient temperature. Stock solutions of the compounds in DMSO are prepared, and these solutions are diluted into the assay buffer (50 mM Tris HCl, pH 7.4, with 150 mM NaCl and 10 mM CaCl2), which is also used for dilution of the enzyme and substrate.

SMILES | IC50
CC(C)(CN(O)C=O)CS(=O)(=O)c1ccc(Oc2ccccc2)cc1 [Example 129, 2,2-dimethyl-3-((4-phenoxyphenyl)sulfonyl)propyl(hydroxy)formamide] | 4.3 nM
CC1(C)NC(=O)N(C[C@@H](CCS(=O)(=O)c2ccc(Oc3ccc(Cl)cc3)cc2)N(O)C=O)C1=O [Example 130] | 12 nM

Other lines, results leading:

IC50 | SMILES
120 nM | O=CN(O)C1CCCCC1CS(=O)(=O)c1ccc(Oc2ccc(F)cc2)cc1 (racemic) [Example 134, (±)-2-(((4-(4-fluorophenoxy)phenyl)sulfonyl)methyl)cyclohexyl(hydroxy)formamide]
4.9 nM | CC(C)(CN(O)C=O)CS(=O)(=O)c1ccc(Oc2ccc(OC(F)(F)F)cc2)cc1 [Example 131, 2,2-dimethyl-3-((4-(4-(trifluoromethoxy)phenoxy)phenyl)sulfonyl)propyl(hydroxy)formamide]
15 nM | CN1C(=O)N(C[C@@H](CCS(=O)(=O)c2ccc(Oc3ccc(F)cc3)cc2)N(O)C=O)C(=O)C1(C)C [Example 132, (1R)-3-((4-(4-fluorophenoxy)phenyl)sulfonyl)-1-((3,4,4-trimethyl-2,5-dioxo-1-imidazolidinyl)methyl)propyl(hydroxy)formamide]
0.6 nM | O=CN(O)CC1(CS(=O)(=O)c2ccc(Oc3ccc(OC(F)(F)F)cc3)cc2)COCOC1 [Example 135, Hydroxy((5-(((4-(4-(trifluoromethoxy)phenoxy)phenyl)sulfonyl)methyl)-1,3-dioxan-5-yl)methyl)formamide]
